Test results from patent US20060142251A1, “Anti-microbial agents derived from methionine sulfoximine analogues” (priority 2002, published 2006).
Values joined by “and” are separate entries in the source; they are usually repeats but may differ in a detail not shown here. Equal values may be shown once. Read-outs that look alike come from different tables or passages of the source.

How the values were obtained:
[1] = in vivo; cited from earlier work
[2] = Text: Exemplary, non-limiting GS inhibitors of the present invention and their relevant properties are summarized below: [drawing 1]
[3] = α-Et-MSO: convulsions in a minority of mice vs MSO dose giving 100% of mice; cited from earlier work
M. tuberculosis Erdman = experiment: M. tuberculosis growth in broth culture; type: cell-based; settings: for inhibition of M. tuberculosis growth in broth culture in comparison with MSO / inhibition of M. tuberculosis in broth culture relative to MSO at each of the three concentrations: 10, 100, 1000 μM; for inhibition of M. tuberculosis growth in broth culture in comparison with MSO: 6 weeks (FIG. 4); for inhibition of M. tuberculosis in broth culture relative to MSO at each of the three concentrations / inhibition of M. tuberculosis growth in broth culture: Example 7; for inhibition of M. tuberculosis growth in broth culture: 10, 100 or 1000 μM, 6 weeks
[4] = cited from earlier work; for metabolism: do not form the toxic products formed in vivo from MSO
[5] = test system: M. tuberculosis Erdman in human macrophages (THP-1 cells); settings: 20, 200, 2000 μM, CFU to day 5 (FIG. 5)
[6] = doses that fully inhibit glutathione synthesis; cited from earlier work
[7] = test system: M. tuberculosis Erdman strain; type: in vivo; settings: for reduction of CFU in lung and spleen below the level obtained with MSO: from day 14
Remark: listed apart in the source

Row | Compound | entry into the brain compared with MSO [1] | Estimated Dose of L Isomer that Induces Convulsions in Mice (Relative to MSO) ([2]; Table 1) | Estimated Dose of L Isomer that Induces Convulsions in Mice (Relative to MSO) ([2]; Table 3) | dose that causes convulsions in mice, higher than MSO [3] | inhibition of M. tuberculosis growth in broth culture in comparison with MSO (M. tuberculosis Erdman) | inhibition of M. tuberculosis in broth culture relative to MSO at each of the three concentrations (M. tuberculosis Erdman) | inhibition of M. tuberculosis growth in broth culture (M. tuberculosis Erdman) | metabolism [4] | Metabolized In Vivo [4] | inhibition of M. tuberculosis growth in human macrophages [5] | other results
1 | CCC(N)(CCS(C)(=N)=O)C(=O)O (racemic) [α-Et-MSO, α-ethyl-DL-methionine-SR-sulfoximine] | do not enter the brain as readily as MSO | >16 | ≧16 | 16 fold | as inhibitory to M. tuberculosis growth as MSO | as inhibitory or slightly more inhibitory than MSO | inhibited M. tuberculosis | resistant to metabolism | − | readily inhibited M. tuberculosis growth in human macrophages | 
2 | CC(N)(CCS(C)(=N)=O)C(=O)O (racemic) [α-Me-MSO, α-methyl-DL-methionine-SR-sulfoximine] | do not enter the brain as readily as MSO | 8 | 8 | ~8 fold | as inhibitory to M. tuberculosis growth as MSO | slightly less inhibitory than MSO | inhibited M. tuberculosis | resistant to metabolism | − | readily inhibited M. tuberculosis growth in human macrophages | 
3 | CCCCS(=N)(=O)CCC(N)C(=O)O [BSO, D, L-Buthionine-SR-Sulfoximine] |  |  |  |  |  |  | did not |  |  |  | animals killed [6]: 100%
4 | NNC(=O)c1ccncc1 [INH, isoniazid] |  |  |  |  |  |  |  |  |  |  | reduction of CFU in lung and spleen below the level obtained with MSO ([7]; INH 1 mg kg^−1 day^−1 oral): ~1.5 logs; reduction of CFU in lung and spleen below the level obtained with MSO ([7]; INH 4 mg kg^−1 day^−1 oral): ~2.5 logs; protection from weight loss ([7]; […], MSO 1.5, INH 1 or 4 mg kg^−1 day^−1): protected animals from weight loss
5 | CS(=N)(=O)CC[C@H](N)C(=O)O (stereo partly drawn) [MSO, L-methionine-SR-sulfoximine] |  | 1 | 1 |  |  |  | inhibited M. tuberculosis |  |  |  | fewer CFU of M. tuberculosis in lung and spleen than control animals ([7]; in vivo): approximately 1 log unit; protection from weight loss ([7]; in vivo): protected animals from weight loss; reduction of CFU of M. tuberculosis in lungs and spleen compared with control animals ([7]; in vivo): ~0.7 logs; reduction of bacterial counts in lung and spleen ([7]; in vivo): effective at reducing bacterial counts; survival of the 10 week observation period ([7]; in vivo): 100% and 80% and 60%; weight gain versus untreated controls ([7]; in vivo): gained significantly more weight than untreated controls; weight loss versus untreated controls ([7]; in vivo): protected from weight loss; reduction of CFU in lungs and spleen compared with untreated controls ([7]; in vivo, ip): 2.5 logs; MTD in the presence of ascorbate relative to absence of ascorbate (guinea pig, in vivo): 4 fold; maximum tolerated dose for guinea pigs infected with M. tuberculosis (guinea pig, in vivo): 1.5 mg kg^−1 day^−; tolerability (guinea pig, in vivo): well-tolerated
6 | O=C1O[C@H]([C@@H](O)CO)C(O)=C1O [ascorbate] |  |  |  |  |  |  |  |  |  |  | total dose well tolerated by guinea pigs (i.p., 9 mmoles kg^−1 day^−1 not well tolerated): 3 mmol/kg/day
